{"source": "patent US20200069685A1", "about": "“Dosing schedule for a combination of Ceritinib and an anti-PD-1 antibody molecule” (NOVARTIS AG, priority 2017, published 2020)", "assay_type_in_all_cases": "in vivo, human", "key": {"[1]": {"assay": "Ceritinib alone: side effects and dose adjustments in patients", "experimental": "The doses were reduced from 750 mg in the steps of 150 mg down to the lowest 300 mg. If the patient required doses lower than 300 mg, ceritinib was discontinued. Approximately 54% of patients initiating treatment at the recommended dose of 750 mg fasted required at least one dose adjustment due to adverse reaction, with a median time to first dose reduction of approximately 7 weeks. However, based on the preliminary data from 36 patients, who were enrolled to 4 cohorts to the concomitant combination therapy of ceritinib and nivolumab, the rates of severe rash (even grade 3) were unexpectedly higher. The cohorts were as follows: cohort 1 (n=8), ceritinib 450 mg daily with a low fat meal in combination with nivolumab 3 mg/kg Q2W; cohort 2 (n=6), ceritinib 450 mg daily with a low fat meal in combination with nivolumab 3 mg/kg Q2W; cohort 3 (n=11), ceritinib 300 mg daily with a low fat meal in combination with nivolumab 3 mg/kg Q2W; cohort 4 (n=11), ceritinib 300 mg daily with a low fat meal in combination with nivolumab 3 mg/kg Q2W. Both dose levels, i.e. 450 mg and 300 mg of ceritinib, administered with the low fat meal led to severe rash. The 450 mg dose level had higher rates of some adverse events, especially grade-3 rash, than expected based on data from either single agent. The proportion of patients with grade-3 rash was higher at the 450 mg dose level, 4/14 patients (29%), than at the 300 mg dose level, 3/22 patients (14%). With regard to the efficacy of the combination therapy, of the 14 patients treated at the 450 mg dose level, 9 (64%) achieved a confirmed partial response. Of the 22 patients treated at the 300 mg dose level, 4 (18%) achieved a confirmed complete (1 patient) or partial (3 patients) response; however, limited follow up, especially for cohort 4, confounded the assessment of confirmed response. The disease control rate (DCR) was similar for the 450 mg and 300 mg dose levels, 79% and 82% respectively. […] However, the 300 mg dose level appeared to have a lower number of objective responses, although this observation was based on a small number of patients with limited follow-up. […] Therefore, based on the safety, efficacy, and PK data a new beneficial dosing regimen is provided that is expected to improve tolerability while maintaining exposure similar to that observed at the 450 mg dose level. We provide herein a dosing regimen for the combination therapy of ceritinib and an anti-PD-1 antibody molecule, where ceritinib is administered for 2 cycles before initiation of combination therapy with nivolumab. […]"}, "[2]": {"assay": "Relative bioavailability study in healthy subjects, light snack cohort", "details": "light snack (approximately 100-300 calories and 1.5 grams of fat), single 750 mg oral dose"}, "[3]": {"assay": "Ceritinib steady state PK (AUC0-24 and Cmax) in the ceritinib and nivolumab combination cohorts", "details": "preliminary; ceritinib in combination with nivolumab", "experimental": "The doses were reduced from 750 mg in the steps of 150 mg down to the lowest 300 mg. If the patient required doses lower than 300 mg, ceritinib was discontinued. Approximately 54% of patients initiating treatment at the recommended dose of 750 mg fasted required at least one dose adjustment due to adverse reaction, with a median time to first dose reduction of approximately 7 weeks. However, based on the preliminary data from 36 patients, who were enrolled to 4 cohorts to the concomitant combination therapy of ceritinib and nivolumab, the rates of severe rash (even grade 3) were unexpectedly higher. The cohorts were as follows: cohort 1 (n=8), ceritinib 450 mg daily with a low fat meal in combination with nivolumab 3 mg/kg Q2W; cohort 2 (n=6), ceritinib 450 mg daily with a low fat meal in combination with nivolumab 3 mg/kg Q2W; cohort 3 (n=11), ceritinib 300 mg daily with a low fat meal in combination with nivolumab 3 mg/kg Q2W; cohort 4 (n=11), ceritinib 300 mg daily with a low fat meal in combination with nivolumab 3 mg/kg Q2W. Both dose levels, i.e. 450 mg and 300 mg of ceritinib, administered with the low fat meal led to severe rash. The 450 mg dose level had higher rates of some adverse events, especially grade-3 rash, than expected based on data from either single agent. […]"}, "[4]": {"assay": "Food effect study of ceritinib in healthy subjects", "details": "single oral dose 500 mg"}, "[5]": {"details": "high-fat meal (approximately 1000 calories and 58 grams of fat)"}, "[6]": {"details": "low-fat meal (approximately 330 calories and 9 grams of fat)"}}, "data": [{"compound": "Cc1cc(Nc2ncc(Cl)c(Nc3ccccc3S(=O)(=O)C(C)C)n2)c(OC(C)C)cc1C1CCNCC1", "note": "[ceritinib, 5-chloro-N2-(2-isopropoxy-5-methyl-4-(piperidin-4-yl)phenyl)-N4-[2-(propane-2-sulfonyl)-phenyl]-pyrimidine-2,4-diamine]", "values": [{"measurement": "rash", "setting": "[1]", "value": "observed rarely"}, {"measurement": "side effects observed", "setting": "[1]", "value": "nausea, diarrhea, vomiting, fatigue, ALT/AST elevation, constipation, abdominal pain"}, {"measurement": "median time to first dose reduction", "setting": "[1]; 750 mg fasted", "value": "approximately 7 weeks"}, {"measurement": "patients who required at least one dose adjustment due to adverse reaction", "setting": "[1]; recommended dose of 750 mg fasted", "value": "Approximately 54%"}, {"measurement": "increase of AUCinf compared to the fasted condition", "setting": "[2]", "value": 54, "unit": "%"}, {"measurement": "increase of Cmax compared to the fasted condition", "setting": "[2]", "value": 45, "unit": "%"}, {"measurement": "steady state exposure (AUC0-24 and Cmax) at 300 mg with food relative to 450 mg with food", "setting": "[3]", "value": "60-65%"}, {"measurement": "increase of AUCinf compared to the fasted state", "setting": "[4]; [5]", "value": 73, "unit": "%"}, {"measurement": "increase of Cmax compared to the fasted state", "setting": "[4]; [5]", "value": 41, "unit": "%"}, {"measurement": "increase of AUCinf compared to the fasted state", "setting": "[4]; [6]", "value": 58, "unit": "%"}, {"measurement": "increase of Cmax compared to the fasted state", "setting": "[4]; [6]", "value": 43, "unit": "%"}]}]}
